Data: patent US20240299328A1, “COMPOSITIONS COMPRISING 15-HEPE AND METHODS OF TREATING AND/OR PREVENTING HEMATOLOGIC DISORDERS AND RELATED DISEASES” (Afimmune Limited, priority 2023, published 2024)

Experiments:
UUO mice = test: UUO study: Sirius red staining, kidney fibrosis area; assay type: in vivo
Protocol: Histopathological analysis: To visualize collagen deposition, kidney sections were stained using picro-Sirius red solution. For quantification of interstitial fibrosis area, bright field images in the corticomedullary region were captured using a digital camera at 200-fold magnification, and the positive areas in 5 fields/section were measured.

NAFLD patients = test: Phase IIa study in NAFLD patients: metabolic, glycemic, lipid and liver parameters; assay type: in vivo, human
Protocol: The study was planned to include 96 evaluable patients with 32 patients randomized per treatment group.
HOMA-IR/Adipo-IR: HOMA-IR/Adipo-IR levels are a method of measuring insulin resistance. HOMA-IR is calculated by multiplying fasting plasma insulin (FPI) by fasting plasma glucose (FPG), then dividing by the constant 405. Adipo-IR is calculated by multiplying fasting non-esterified fatty acids (NEFA)×fasting insulin. Blood samples were taken to assess HOMA-IR and Adipo-IR at Visit 2/Baseline, Visit 3/Week 2, Visit 4/Week 4, Visit 6/Week 8, Visit 8/Week 12, Visit 10/Week 16 and Follow up Visit 11/Week 20. All subjects were required to have been fasted for a minimum of 8 hours prior to blood sampling. If subjects had not fasted for a minimum of 8 hours, the duration of fasting time was recorded, and subjects encouraged to fast appropriately for the next clinical visit.
Liver stiffness and CAP: Liver stiffness and CAP were assessed using transient elastography (e.g., FibroScan® 502 Touch model or equivalent). Patients were fasted and scanned at the same time of the day, if possible, for baseline (Week 0) and Visit 10 (Week 16). For this assessment the following conditions were met: patients were lying in dorsal decubitus position with the right arm in maximal abduction behind the head, in a similar position to that used for liver biopsy (LB); the tip of the transducer was placed on the skin between the ribs over the right lobe of the liver (the physician took the measurements with the probe placed in the intercostal space); during the FibroScan® examination the choice of M+ or XL+ probe was determined by the Automatic Probe Selection tool (APS) (If, the APS tool advises to use the “XL+ probe” or “switch” continuously between “M+ and XL+ probe”, only the XL+ probe was used); and the operator, assisted by an ultrasonic time motion image, located a portion of the liver which is free of large vascular structures (the depth of measurement was between 35-75 mm for the XL+ probe and 25-65 mm for the M+ probe and the explored volume will be 3 cm^3). For each patient, the operator performed an examination including at least 10 valid measurements or a maximum of 20 attempts, with the XL+ or M+ probe, at the same spot. The entire examination lasted no more than 10-15 minutes. The final stiffness and CAP values was recorded as median values of valid measurements.
Clinical Laboratory Safety Tests: Safety tests were performed for hematology, serum biochemistry, coagulation, lipid profile, and urinalysis: Blood and urine samples were taken as per the Study Flow Chart in Table 19 for routine hematology, serum biochemistry, coagulation and urinalysis tests, along with a Lipid Profile. All samples were analyzed in the central laboratory. All subjects were fasted for a minimum of 8 hours prior to blood sampling. If subjects had not fasted for a minimum of 8 hours, the duration of fasting time was recorded, and subjects encouraged to fast appropriately for the next clinical visit. • Hematology: Full blood count to include red cell count, hemoglobin, hematocrit, white cell count, differential white cell count, platelet count and reticulocyte count. • Serum biochemistry: Urea (blood urea nitrogen; BUN), creatinine, uric acid, total bilirubin, Indirect and Direct Bilirubin, sodium, bicarbonate potassium, phosphorus, calcium chloride, alkaline phosphatase (ALP), aspartate aminotransferase (AST), alanine aminotransferase (ALT), ALT/AST ratio, lactate dehydrogenase (LDH), creatine phosphokinase (CPK), albumin, total protein, cholesterol, triglycerides, glucose, C-reactive protein (CRP). • Coagulation: prothrombin time (PT), international normalized ratio (INR) and activated partial […]. • Lipid Profile: LDL, HDL, and VLDL-C. • Urinalysis: pH, protein, glucose, blood, ketones, leukocytes, leukocyte esterase, bilirubin, specific gravity, urobilinogen and nitrate. […]

[1] = tested on: humanized sickle cell (SS) mice exposed to H/R stress; test: SCD (SS) mice exposed to H/R stress: lung, kidney and liver histopathology; assay type: in vivo; set-up: key to Lung thrombi / Kidney thrombi / Liver thrombi: 0: no thrombi; +: presence of thrombi per field at the magnification ×250; conditions: 1000 mg/Kg/d for 6 weeks
Protocol: Lung, kidney and liver histological analysis: Paraffin-embedded tissue blocks were cut into 2-3 μm sections and mounted on adhesion microscope glass slides for Hematoxylin-Eosin (H&E), and Perls' staining for iron content. The analysis was performed on four different fields at a magnification 200×. Tissue pathological analysis, inflammatory cell infiltrate, the presence of thrombi and iron deposition were carried out by blinded pathologists as previously described.
(§1) Score for inflammatory cell infiltrate. Quantification of inflammatory cell infiltrates was expressed as the mean of cells per field at magnification of X250, as resulting by the analysis of at least 10 different fields on each hematoxylin-eosin-stained whole lung section. Data are expressed as means±SEM; * p<0.05 compared to normoxia.
Thrombi: 0: no thrombi; +: presence of thrombi per field at the magnification ×250.
Score for inflammatory cell infiltrate. Quantification of inflammatory cell infiltration in renal cortex of kidney was determined in hematoxylin-eosin-stained sections using a 0 to 4 scale based on the percentage of cell infiltrates occupied area in each filed. 0 (no sign of infiltration); 1 (1-10% of the area with cell infiltration); 2 (11-25%); 3 (26-50%); 4 […]. The mean of 15 randomly selected field were analyzed at magnification ×400. Data are expressed as means±SEM; * p<0.05 compared to normoxia; ºp<0.05 compared to vehicle. Thrombi: 0: no thrombi; +: presence of thrombi presence of thrombi per field at the magnification ×250.
as §1, with “×250,” for “X250,”, “liver” for “lung”
Thrombi: 0: no thrombi; +: presence of thrombi presence of thrombi per field at the magnification ×250.
Statistical analysis: Non-parametric Pairwise Wilcoxon Rank Sum Tests was used.

CC/C=C\C[C@H](O)/C=C/C=C\C/C=C\C/C=C\CCCC(=O)OCC [DS102, 15(S)-hydroxy-(5Z,8Z,11Z,13E,17Z)-eicosapentaenoic acid ethyl ester]
Sirius red-positive area (%)_Median (UUO mice; 50 mg/kg PO QD Day 0-13, Day 14, median): 4.19 ± 3.33% | Sirius red-positive area (%)_Median (UUO mice; 500 mg/kg PO QD Day 0-13, Day 14, median): 3.08 ± 1.16% | hepatic fat content as assessed by CAP (NAFLD patients): reduced | insulin sensitivity and glycemic control (NAFLD patients; 1 g or 2 g per day, 16 weeks): improvement | markers of metabolic overload (NAFLD patients; 1 g or 2 g per day, 16 weeks): statistically significant reduction | insulin resistance indices (HOMA-IR and adipo-IR levels) (NAFLD patients; 1 g or 2 g per day, Week 16): improvement | glycemic control (HbA1c levels) (NAFLD patients; 1 g or 2 g per day, baseline to Week 16, dose-dependent): clinically significant improvements | insulin, glucose, and free fatty acid levels (NAFLD patients; 1 g or 2 g per day, baseline to Week 16 vs placebo): reduction | alkaline phosphate (ALP) (NAFLD patients; 2 g): reduced | Triglycerides (median placebo-corrected % change from baseline) (NAFLD patients; 2 g, Week 16, Full Analysis Set): −40.2% | insulin resistance indices (HOMA-IR and adipo-IR levels) (NAFLD patients; 2 g, Week 16, Per Protocol Set (PPS)): significant improvements | Triglycerides (median placebo-corrected % change from baseline) (NAFLD patients; 2 g, Week 16, Subgroup: High Triglycerides (>200 mg/dL)): −20.4% | Triglycerides (median placebo-corrected % change from baseline) (NAFLD patients; 2 g, Week 16, Subgroup: Triglycerides > Upper Limit Normal (>150 mg/dL)): −39.0% | lipid profile (total cholesterol, VLDL-C, non-HDL-C, RLP cholesterol, triglyceride levels) (NAFLD patients; Week 16, safety analysis set (SAS)): significantly improved | Kidney thrombi ([1]; n = 4): 0 | Liver thrombi ([1]; n = 4): 0 | Lung thrombi ([1]; n = 4): 0 | liver iron accumulation (Perls' staining) ([1]; vs vehicle): significant reduction | thrombi formation in liver ([1]; vs vehicle): significant reduction
